# Reference: US20240300980A1, “HETEROCYCLIC COMPOUNDS AS KRAS INHIBITOR, AND PREPARATION THEREFOR AND USE THEREOF IN TREATMENT” (SHANGHAI KECHOW PHARMA, INC., priority 2021, published 2024)
# Test system: AGS cells (KRAS^G12D)
# Experiment: Detection of cell proliferation in vitro by MTT/MTS method (cell activity experiment)
# Assay type: cell-based
# Conditions: Homo sapiens, AGS, 72 h, AGS cells; MTT/MTS; 3 days of drug treatment; read-out: AGS IC50
# Outline: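 After 3-day compound exposure (final DMSO 0.5%), viability of AGS (KRAS G12D) cells, plated 1000/well one day before dosing, was measured at 490 nm following 4 h MTT or MTS incubation. IC50 was fitted from dose–effect curves relative to DMSO-treated wells.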
row,Structure (SMILES),IC50
1,"C#Cc1nccc2cc(O)cc(-c3ncc4c(N5C[C@H]6CC[C@@H](C5)N6)nc(OC[C@@]56CCCN5C[C@H](F)C6)nc4c3F)c12 [Example 339, 8-(4-((1R,5S)-3,8-diazabicyclo[3.2.1]octan-3-yl)-8-fluoro-2-(((2R,7aS)-2-fluorotetrahydro-1H-pyrrolizin-7a(5H)-yl)methoxy)pyrido[4,3-d]pyrimidin-7-yl)-1-ethynylisoquinolin-6-ol]",0.015 µM
2,"Oc1ccc2c(C#Cc3ncc4c(N5C[C@H]6CC[C@@H](C5)N6)nc(OC[C@@]56CCCN5C[C@H](F)C6)nc4c3F)c(F)ccc2c1 [Example 368, 5-((4-((1R,5S)-3,8-diazabicyclo[3.2.1]octan-3-yl)-8-fluoro-2-(((2R,7aS)-2-fluorotetrahydro-1H-pyrrolizin-7a(5H)-yl)methoxy)pyrido[4,3-d]pyrimidin-7-yl)ethynyl)-6-fluoronaphthalen-2-ol]",0.055 µM
3,"CSc1c(F)ccc2cc(O)cc(-c3ncc4c(N5C[C@H]6CC[C@@H](C5)N6)nc(OC[C@@]56CCCN5C[C@H](F)C6)nc4c3F)c12 [Example 360, 4-(4-((1R,5S)-3,8-diazabicyclo[3.2.1]octan-3-yl)-8-fluoro-2-(((2R,7aS)-2-fluorotetrahydro-1H-pyrrolizin-7a(5H)-yl)methoxy)pyrido[4,3-d]pyrimidin-7-yl)-6-fluoro-5-(methylthio)naphthalen-2-ol]",0.01 µM
4,"Cn1cnc2cc(O)cc(-c3ncc4c(N5C[C@H]6CC[C@@H](C5)N6)nc(OC[C@@]56CCCN5C[C@H](F)C6)nc4c3F)c21 [Example 279, 7-(4-((1R,5S)-3,8-diazabicyclo[3.2.1]octan-3-yl)-8-fluoro-2-(((2R,7aS)-2-fluorotetrahydro-1H-pyrrolizin-7a(5H)-yl)methoxy)pyrido[4,3-d]pyrimidin-7-yl)-1-methyl-1H-benzo[d]imidazol-5-ol]",> 10 µM
5,"CCc1c(F)ccc2cc(O)cc(-c3ncc4c(N5C[C@H]6CC[C@@H](C5)N6)c(C#N)c(OC[C@@]56CCCN5C[C@H](F)C6)nc4c3F)c12 [Example 192, 4-((1R,5S)-3,8-diazabicyclo[3.2.1]octan-3-yl)-7-(8-ethyl-7-fluoro-3-hydroxynaphthalen-1-yl)-8-fluoro-2-(((2R,7aS)-2-fluorotetrahydro-1H-pyrrolizin-7a(5H)-yl)methoxy)-1,6-naphthyridine-3-carbonitrile]",0.121 µM
6,"CCc1cccc2cc(O)cc(-c3ccc4c(N5C[C@H]6CC[C@@H](C5)N6)nc(OC[C@@]56CCCN5C[C@H](F)C6)nc4c3F)c12 [Example 93, 4-(4-((1R,5S)-3,8-diazabicyclo[3.2.1]octan-3-yl)-8-fluoro-2-(((2R,7aS)-2-fluorotetrahydro-1H-pyrrolizin-7a(5H)-yl)methoxy)quinazolin-7-yl)-5-ethylnaphthalen-2-ol]",0.0101 µM
7,"C#Cc1c(F)ccc2cc(O)cc(-c3c(Cl)cc4c(N5C[C@H]6CC[C@@H](C5)N6)nc(OC[C@@]56CCCN5C[C@H](F)C6)nc4c3OCC(F)(F)F)c12 [Example 331, 4-(4-((1R,5S)-3,8-diazabicyclo[3.2.1]octan-3-yl)-6-chloro-2-(((2R,7aS)-2-fluorotetrahydro-1H-pyrrolizin-7a(5H)-yl)methoxy)-8-(2,2,2-trifluoroethoxy)quinazolin-7-yl)-5-ethynyl-6-fluoronaphthalen-2-ol]",0.823 µM
8,"C#Cc1c(F)ccc2cc(O)cc(-c3ccc4c(N5C[C@H]6CC[C@@H](C5)N6)c(C#N)c(OC[C@@]56CCCN5C[C@H](F)C6)nc4c3)c12 [Example 171, 4-((1R,5S)-3,8-diazabicyclo[3.2.1]octan-3-yl)-7-(8-ethynyl-7-fluoro-3-hydroxynaphthalen-1-yl)-2-(((2R,7aS)-2-fluorotetrahydro-1H-pyrrolizin-7a(5H)-yl)methoxy)quinoline-3-carbonitrile]",1.24 µM
9,"C#Cc1c(F)ccc2cc(O)cc(-c3ccc4c(N5C[C@H]6CC[C@@H](C5)C6(F)F)nc(OC[C@@]56CCCN5C[C@H](F)C6)nc4c3F)c12 [Example 119, 4-(4-((1R,5S)-8,8-difluoro-3-azabicyclo [3.2.1]octan-3-yl)-8-fluoro-2-(((2R,7aS)-2-fluorotetrahydro-1H-pyrrolizin-7a(5H)-yl)methoxy)quinazolin-7-yl)-5-ethynyl-6-fluoronaphthalen-2-ol]",> 2.5 µM
10,"CC1CCCc2cc(O)cc(-c3ncc4c(N5C[C@H]6CC[C@@H](C5)N6)nc(OC[C@@]56CCCN5C[C@H](F)C6)nc4c3F)c21 (stereo partly drawn) [Example 224, 4-(4-((1R,5S)-3,8-diazabicyclo[3.2.1]octan-3-yl)-8-fluoro-2-(((2R,7aS)-2-fluorotetrahydro-1H-pyrrolizin-7a(5H)-yl)methoxy)pyrido[4,3-d]pyrimidin-7-yl)-5-methyl-5,6,7,8-tetrahydronaphthalen-2-ol]",0.0048 µM
11,"C#Cc1cccc2cc(O)cc(-c3ncc4c(N5C[C@H]6CC[C@@H](C5)S6)nc(OC[C@@]56CCCN5C[C@H](F)C6)nc4c3F)c12 [Example 20, 4-(4-((1R,5S)-8-thia-3-azabicyclo [3.2.1]octan-3-yl)-8-fluoro-2-(((2R, 7aS)-2-fluorotetrahydro-1H-pyrrolizin-7a(5H)-yl)methoxy)pyrido [4,3-d]pyrimidin-7-yl)-5-ethynylnaphthalen-2-ol]",0.271 µM
12,"Oc1cc(Cl)c(C2CC2)c(-c2ncc3c(N4C[C@H]5CC[C@@H](C4)N5)nc(OCC4(CN5CCCC5)CC4)nc3c2F)c1 [Example 10, 3-(4-((1R,5S)-3,8-diazabicyclo[3.2.1]octan-3-yl)-8-fluoro-2-((1-(pyrrolidin-1-ylmethyl)cyclopropyl)methoxy)pyrido[4,3-d]pyrimidin-7-yl)-5-chloro-4-cyclopropylphenol]",0.017 µM
13,"Oc1cc2c(c(-c3ncc4c(N5C[C@H]6CC[C@@H](C5)N6)nc(OC[C@@]56CCCN5C[C@H](F)C6)nc4c3F)c1)C(F)CCC2 (stereo partly drawn) [Example 272, 4-(4-((1R,5S)-3,8-diazabicyclo[3.2.1]octan-3-yl)-8-fluoro-2-(((2R,7aS)-2-fluorotetrahydro-1H-pyrrolizin-7a(5H)-yl)methoxy)pyrido[4,3-d]pyrimidin-7-yl)-5-fluoro-5,6,7,8-tetrahydronaphthalen-2-ol]",0.07 µM
14,"C#Cc1c(F)ccc2cc(O)cc(-c3ccc4c(C56CCN(CC5)CC6)nc(OC[C@@]56CCCN5C[C@H](F)C6)nc4c3F)c12 [Example 136, 5-ethynyl-6-fluoro-4-(8-fluoro-2-(((2R,7aS)-2-fluorotetrahydro-1H-pyrrolizin-7a(5H)-yl)methoxy)-4-(quinuclidin-4-yl)quinazolin-7-yl)naphthalen-2-ol]",> 2.5 µM
15,"N#Cc1c(OC[C@@]23CCCN2C[C@H](F)C3)nc2cc(-c3cc(O)cc4cccc(F)c34)ccc2c1N1C[C@H]2CC[C@@H](C1)N2 [Example 176, 4-((1R,5S)-3,8-diazabicyclo[3.2.1]octan-3-yl)-7-(8-fluoro-3-hydroxynaphthalen-1-yl)-2-(((2R,7aS)-2-fluorotetrahydro-1H-pyrrolizin-7a(5H)-yl)methoxy)quinoline-3-carbonitrile]",1.34 µM
16,"CCc1c(F)ccc2cc(O)cc(N3CCc4c(nc(OC[C@@]56CCCN5C[C@H](F)C6)nc4N4C[C@H]5CC[C@@H](C4)N5)C3)c12 [Example 203, 4-(4-((1R,5S)-3,8-diazabicyclo[3.2.1]octan-3-yl)-2-(((2R,7aS)-2-fluorotetrahydro-1H-pyrrolizin-7a(5H)-yl)methoxy)-5,8-dihydropyrido[3,4-d]pyrimidin-7(6H)-yl)-5-ethyl-6-fluoronaphthalen-2-ol]",0.017 µM
17,"CC[C@@H]1CCc2cc(O)cc(-c3ncc4c(N5CC6CCC(C5)N6)nc(OC[C@@]56CCCN5C[C@H](F)C6)nc4c3F)c21 (single isomer, unassigned) [Example 221, (R)-7-(4-((1R,5S)-3,8-diazabicyclo[3.2.1]octan-3-yl)-8-fluoro-2-(((2R,7aS)-2-fluorotetrahydro-1H-pyrrolizin-7a(5H)-yl)methoxy)pyrido[4,3-d]pyrimidin-7-yl)-1-ethyl-2,3-dihydro-1H-inden-5-ol or (S)-7-(4-((1R,5S)-3,8-diazabicyclo[3.2.1]octan-3-yl)-8-fluoro-2-(((2R,7aS)-2-fluorotetrahydro-1H-pyrrolizin-7a(5H)-yl)methoxy)pyrido[4,3-d]pyrimidin-7-yl)-1-ethyl-2,3-dihydro-1H-inden-5-ol]",0.875 µM
18,"C#Cc1c(F)ccc2cc(O)cc(-c3cc4nc(OC[C@@]56CCCN5C[C@H](F)C6)c(C(F)(F)F)c(N5C[C@H]6CC[C@@H](C5)N6)c4cn3)c12 [Example 195, 4-(4-((1R,5S)-3,8-diazabicyclo[3.2.1]octan-3-yl)-2-(((2R,7aS)-2-fluorotetrahydro-1H-pyrrolizin-7a(5H)-yl)methoxy)-3-(trifluoromethyl)-1,6-naphthyridin-7-yl)-5-ethynyl-6-fluoronaphthalen-2-ol]",> 2.5 µM
19,"C#Cc1c(F)ccc2cc(O)cc(-c3ncc4c(N5CC6CCC(C5)C6SC)nc(OC[C@@]56CCCN5C[C@H](F)C6)nc4c3F)c12 (stereo partly drawn) [Example 64, 5-ethynyl-6-fluoro-4-(8-fluoro-2-(((2R,7aS)-2-fluorotetrahydro-1H-pyrrolizin-7a(5H)-yl)methoxy)-4-((1R,5S, 8R)-8-(methylthio)-3-azabicyclo[3.2.1]octan-3-yl)pyrido[4,3-d]pyrimidin-7-yl) naphthalen-2-ol]",> 10 µM
20,"C#Cc1cccc2cc(O)cc(-c3ccc4c(N5C[C@H]6CC[C@@H](C5)N6)c(C(F)(F)F)c(OC[C@@]56CCCN5C[C@H](F)C6)nc4c3)c12 [Example 184, 4-(4-((1R,5S)-3,8-diazabicyclo[3.2.1]octan-3-yl)-2-(((2R,7aS)-2-fluorotetrahydro-1H-pyrrolizin-7a(5H)-yl)methoxy)-3-(trifluoromethyl)quinolin-7-yl)-5-ethynylnaphthalen-2-ol]",> 2.5 µM
21,"Oc1cc(-c2ncc3c(N4C[C@H]5CC[C@@H](C4)C5(F)F)nc(OC[C@@]45CCCN4C[C@H](F)C5)nc3c2F)c2c(F)c(F)ccc2c1 [Example 33, 4-(4-((1R,5S)-8,8-difluoro-3-azabicyclo [3.2.1]octan-3-yl)-8-fluoro-2-(((2R,7aS)-2-fluorotetrahydro-1H-pyrrolizin-7a(5H)-yl)methoxy)pyrido[4,3-d]pyrimidin-7-yl)-5,6-difluoronaphthalen-2-ol]",> 2.5 µM
